Results as given in article PMC4773758, “Small Molecule Inhibited Parathyroid Hormone Mediated cAMP Response by N–Terminal Peptide Binding” (Scientific Reports, 2016).

How the values were obtained:
[1] = test system: HEK 293 cells; test: Cell viability, MTT assay; format: cell-based, Human; conditions: up to 100 μM, MTT after 3h
Protocol: (§1) The cAMP generation was also analyzed to see the effect of the Zn complex on the receptor itself. Here, the Zn complex was pre-incubated with the cells followed by addition of PTH(1–84). […] In another control experiment cAMP generation was also studied by incubating the 9-anthracenemethanol with the peptide (Figure S9) or directly with the cells (grey bars in Figure S7). […] Additionally, inhibition of cAMP response or cell toxicity was also not observed up to 100 μM of Zn–perchlorate (Figure S10).
Figure S10: (a) cAMP response and (b) cell viability against Zn–perchlorate. Cell viability was tested after 3h using MTT assay.

[2] = target: T1, PTH(1–84) (Homo sapiens, UniProt P01270); test: Fluorescence quenching titration with PTH(1–84); format: binding
T1 construct: SUMO (N, cleaved yes); His-tag (C); made in house; host or cells: E. coli BL21 codon+
T1 sequence (P01270 32-115): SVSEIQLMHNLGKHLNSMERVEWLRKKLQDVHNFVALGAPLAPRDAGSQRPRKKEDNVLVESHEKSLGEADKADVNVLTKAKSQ
Protocol: The natural form of parathyroid hormone comprises 84 residues, however, PTH(1–34) is sufficient for receptor activation. PTH contains one tryptophan residue at position 23. Thus it can be used as a highly sensitive fluorescent probe for the analysis of ligand binding by fluorescence spectroscopy. PTH is composed of structured sections mainly from positions 1–37, whereas the C–terminal part is largely unstructured. […] In order to establish the binding a titration experiment was carried out where the PTH(1–34) concentration was kept constant and the concentration of the Zn complex was varied.
The fluorescence quenching behavior was analyzed according to the equation given in the experimental section. […] In order to evaluate the interaction at the C–terminal part of the PTH and its role in binding, full length PTH(1–84) was taken and its binding was established.
Fluorescence titrations were carried out on a JASCO FP6500. The samples were excited at 280 nm wavelength and the emission spectra were recorded in the range between 290 nm to 450 nm. Experiments were carried out in 10 mM BisTris, 300 mM Na2SO4, 0.02% NaN3, pH 7.2 using a 1 cm path length quartz cell. The concentration of PTH(1–34), PTH(1–84) and nECD-PTH1R used in the titration experiments were 7.4 μM, 8.1 μM and 5 μM, respectively. In a typical titration experiment, 4 μM of Zn complex or 9-anthracenemethanol was added and spectra were recorded after each addition. Zn complex or 9-anthracenemethanol in buffer was used as blank titration and these spectral traces were subtracted from the main titration. The Zn complex or 9-anthracenemethanol was dissolved in dimethyl sulfoxide and further diluted for experiments. The final concentration of DMSO was <1% in any experiment.
Fluorescence data were analyzed according to the following equation:
with P = (P0 / (V0 + L))V0 and L1 = (L0 / (V0 + L))L and Q – fluorescence intensity, P – protein concentration, L – ligand concentration, V – volume, n – binding sites and 0 – indicates start point.

[3] = target: T1, PTH(1–84); test: NMR 1H–15N HSQC titration with 15N–PTH(1–84); format: binding; conditions: pH 5.3, 25 °C
From the text: Preferential binding at residue-level resolution was further investigated by choosing full length ^15N PTH(1–84) to see whether or not the C–terminal region is involved in the Zn complex interaction. […] These NMR spectra indicate that the N–terminal domain of PTH (1–84) binds to the Zn complex whereas the C–terminus part remains solvent exposed and flexible enough to result in observable resonances. […] Histidine 63 is the only exception in the C–terminal part of PTH(1–84) sensing complex formation.
The spectra were recorded at the concentration of 50 μM of peptide hormones. Subsequently, titration was carried out with the addition of 0.5 μl of 10 mM Zn complex until there was no further change in NMR intensity observed. The spectrum corresponding to the 1:4 complex formations was used for the analysis. For the 9-anthracenemethanol titration experiment 20 μM of PTH was used. A titration was carried out and the 1:4 complex of PTH:9-anthracenemethanol was analyzed in detail. The spectra were corrected for the dilution factor. The previously determined NMR assignments of PTH resonances were used[24][63][64]. The spectra were recorded in the 10 mM BisTris, 300 mM Na2SO4, 0.02% NaN3, pH 5.3, with a Bruker 800 MHz Avance III spectrometer equipped with a CP–TCI cryoprobe at 25 °C. Spectra were processed using the programs NMRPipe and NMR Draw.

[4] = test system: PTH(1–84) induced cAMP in HEK 293 cells expressing hPTH1R; test: cAMP accumulation assay, compound pre-incubated with PTH(1–84); format: cell-based, Human
From the text: NMR spectroscopy identified that the Zn complex interacts with the N–terminal part of the peptide hormone. The binding region from residues 1–37 of PTH(84) is important for recognition, interaction with the extracellular loops and trans–membrane helices of the receptor and bringing about activation of the later. There are two principal signal transduction pathways involving the G protein–coupled receptors: the cAMP signal pathway and the phosphatidylinositol signal pathway. Parathyroid hormone is involved in the cAMP pathway for its biological regulation. Because binding of the Zn complex was at the N–terminal part of PTH, it is interesting to investigate the cAMP response towards its receptor in the presence of the Zn complex. Therefore PTH(1–34) and PTH(1–84) induced cAMP accumulation was measured in stable HEK 293 cell lines expressing recombinant PTH1R[33]. A cAMP generation assay was carried out in a Zn complex concentration dependent manner, keeping the cells and peptide hormone concentrations constant. PTH response without Zn complex was considered as 100% cAMP response. The peptide hormones were exposed to Zn complex for 15 minutes to allow for complex formation and subsequently cAMP generation was studied.
(§2) HEK 293 cells stably expressing hPTH1R were used for the cAMP accumulation assay following the previously reported procedure. The reaction was carried out at 37 °C and fluorescence measurements were taken using a VICTOR X4 2030 plate reader (PerkinElmer Life and Analytical Sciences). A fixed amount of 0.01 μM peptide hormones and 4 × 10^3 cells per well were used to monitor the cAMP response. The Zn complex or 9-anthracenemethanol was diluted form 0.1 μM to 100 μM and incubated for 15 minutes with the peptide hormone before addition of HEK 293 cells. All experiments were performed in triplicate and repeated independently three times. The maximum cAMP response were calculated as a percentage of the maximal response of PTH(1–34) or PTH(1–84). The effect of Zn complex or 9-anthracenemethanol on receptor was evaluated by incubating these with the cells for 15 minutes followed by washing with buffer. These treated cells were added to the reaction mixture containing untreated PTH(1–84) as described above.

[5] = parameters: method as in PMID 21709916; conditions: cited from earlier work
[6] = test system: cancer cells; parameters: method as in PMID 21709916; conditions: broad range of cancer cells; cited from earlier work
[7] = test system: PTH1R in HEK 293 cells; test: cAMP assay, compound pre-incubated with cells followed by PTH(1–84); format: cell-based, Human; conditions: compound pre-incubated with the cells, then PTH(1–84)
Protocol: as §1
as §2, with “All experiments were performed in triplicate and repeated independently three times.” left out, “These treated cells were added to the reaction mixture containing untreated PTH(1–84) as described above.” left out

Compound | cell toxicity [1] | change in fluorescence intensity ([2]; up to 200 μM, PTH(1–84)) | change in NMR cross peaks / intensity of PTH(1–84) [3] | inhibition of cAMP response ([4]; up to 100 μM) | nuclease activity [5] | antiproliferative activity [6] | suppression of cAMP generation [7] | Kd ([2]; fluorescence titration against PTH(1–84)) [mM] | suppression of intracellular cAMP generation ([4]; compound incubated with the peptide PTH(1–84))
[O-][Cl+3]([O-])([O-])[O-].[O-][Cl+3]([O-])([O-])[O-].[Zn+2] [Zn–perchlorate, reference compound] | not observed | did not show any significant change | did not show a significant change in NMR cross peaks | not observed | – | – | – | – | –
Cu(II) complex of anthracenyl terpyridine [reference compound] | – | – | – | – | showed nuclease and antiprolifirative activity | showed nuclease and antiprolifirative activity | – | – | –
OCc1c2ccccc2cc2ccccc12 [9-anthracenemethanol, reference compound] | – | – | no residue specific NMR intensity loss | – | – | – | significant suppression of intracellular cAMP generation was not observed | 3.52 ± 0.38 | significant suppression of intracellular cAMP generation was not observed
